Data published in US10365269B2, “System and methods for detecting ribosome inhibition” (priority 2015, dated 2019).
Entries after “also recorded” stand apart in the source; their conditions may differ.

Key:
Assay type in all cases: cell-based
TetR = target: T1, TetR (Escherichia coli, UniProt P04483); assay: Recovery of GFPuv fluorescence in E. coli DH5α containing pSH3-KF; conditions: saturating ATC
T1 construct: expressed in transfected cells; host or cells: E. coli DH5α transformed with pSH3-KF (tetR amplified from pSR26_2)
Experimental: (§1) All cell density and fluorescence measurements were taken in triplicate. 96-well culture plates (1 mL LB per well) with appropriate concentrations of necessary antibiotics and aminoglycoside were inoculated 1:100 from a saturated overnight liquid culture and allowed to grow for 48 hours at 37° C., 200 rpm shaking. For cell density assays, 40 μL of sample was taken from each well, diluted 5-fold, and OD600 was measured by microplate reader. The OD600 of the original culture was calculated by multiplying the reading by the dilution factor (Melançon et al., 2009, Bioorg. Med. Chem. Lett. 19:3845-3847). For cell pellet fluorescence imaging, cells were pelleted by centrifugation (4,000×g, 15 minutes, 4° C.) and the supernatant was decanted completely. […] For fluorescence quantification, cell pellets were resuspended in 1 mL of ¼×Ringer's solution (30.75 mM NaCl, 1.2 mM, KCl, 1.5 mM CaCl2, pH 7.3-7.4), 200 μL of cells from each well were transferred to black 96-well plates, and GFP fluorescence was measured (excitation=395 nm, bandwidth=9 nm; emission=509 nm, bandwidth=15 nm). Fluorescence intensities were calculated as fluorescence/OD600 of the sample minus fluorescence/OD600 of a sample of a non-GFP-expressing E. coli strain parental to the strain being analyzed in order to correct for both cell density and E. coli auto-fluorescence. […]

O-ribosome [1] = assay: Ribosome inhibition fluorescence assay in E. coli SH391 (SH386 with pSH3-KF); conditions: E. coli SH391, kanamycin 0-500 μM
Experimental: All cell density and fluorescence measurements were taken in triplicate. 96-well culture plates (1 mL LB per well) with appropriate concentrations of necessary antibiotics and aminoglycoside were inoculated 1:100 from a saturated overnight liquid culture and allowed to grow for 48 hours at 37° C., 200 rpm shaking. For cell density assays, 40 μL of sample was taken from each well, diluted 5-fold, and OD600 was measured by microplate reader. The OD600 of the original culture was calculated by multiplying the reading by the dilution factor (Melançon et al., 2009, Bioorg. Med. Chem. Lett. 19:3845-3847). For cell pellet fluorescence imaging, cells were pelleted by centrifugation (4,000×g, 15 minutes, 4° C.) and the supernatant was decanted completely. […] For fluorescence quantification, cell pellets were resuspended in 1 mL of ¼×Ringer's solution (30.75 mM NaCl, 1.2 mM, KCl, 1.5 mM CaCl2, pH 7.3-7.4), 200 μL of cells from each well were transferred to black 96-well plates, and GFP fluorescence was measured (excitation=395 nm, bandwidth=9 nm; emission=509 nm, bandwidth=15 nm). Fluorescence intensities were calculated as fluorescence/OD600 of the sample minus fluorescence/OD600 of a sample of a non-GFP-expressing E. coli strain parental to the strain being analyzed in order to correct for both cell density and E. coli auto-fluorescence.

O-ribosome [2] = assay: O-ribosome inhibition fluorescence assay in E. coli SH399 (pSH6-KF, pRRSH2-A1408G); conditions: for detection of O-ribosome inhibition (fluorescence signal): E. coli SH399, A1408G 16S rRNA, aminoglycoside 0-500 μM, 48 h; for dose-dependent fluorescence response pattern: E. coli SH399, increasing aminoglycoside concentrations; for fluorescence at drug concentrations beyond those that give the peak response / relative ribosome inhibition activity (rank among ten compounds): E. coli SH399; for relative ribosome inhibition activity (rank among ten compounds): printed order: sisomicin, gentamicins, neomycin B, paromomycin, tobramycin, amikacin, ribostamycin, apramycin, kanamycin A, neamine
Experimental: (§2) All cell density and fluorescence measurements were taken in triplicate. 96-well culture plates (1 mL LB per well) with appropriate concentrations of necessary antibiotics and aminoglycoside were inoculated 1:100 from a saturated overnight liquid culture and allowed to grow for 48 hours at 37° C., 200 rpm shaking. For cell density assays, 40 μL of sample was taken from each well, diluted 5-fold, and OD600 was measured by microplate reader. The OD600 of the original culture was calculated by multiplying the reading by the dilution factor (Melançon et al., 2009, Bioorg. Med. Chem. Lett. 19:3845-3847). For cell pellet fluorescence imaging, cells were pelleted by centrifugation (4,000×g, 15 minutes, 4° C.) and the supernatant was decanted completely. The underside of the plate was illuminated at 365 nm using an ultraviolet handheld lamp and photgraphed with an 8 megapixel digital camera. For fluorescence quantification, cell pellets were resuspended in 1 mL of ¼×Ringer's solution (30.75 mM NaCl, 1.2 mM, KCl, 1.5 mM CaCl2, pH 7.3-7.4), 200 μL of cells from each well were transferred to black 96-well plates, and GFP fluorescence was measured (excitation=395 nm, bandwidth=9 nm; emission=509 nm, bandwidth=15 nm). Fluorescence intensities were calculated as fluorescence/OD600 of the sample minus fluorescence/OD600 of a sample of a non-GFP-expressing E. coli strain parental to the strain being analyzed in order to correct for both cell density and E. coli auto-fluorescence.
Dose-dependent fluorescence responses by E. coli SH399 was observed when treated with five of these compounds as determined by plate reader fluorescence assays (see section 1.6 for experimental details). (FIG. 4A and FIG. 20).

O-ribosome [3] = assay: O-ribosome inhibition fluorescence assay in E. coli SH431 (pSH6-KF, pRRSH2-U1406A); conditions: for detection of O-ribosome inhibition (fluorescence signal): E. coli SH431, U1406A 16S rRNA, aminoglycoside 0-500 μM; for relative potency as ribosome inhibitor (rank among four compounds): printed order: gentamicins, G418 and hygromycin B, kanamycin A
Experimental: as §2
(§3) To extend the approach to a system with a different aminoglycoside resistance mutation, prrnC-sacB was replaced with pRRSH2-U1406A (see Section 2.2.2 for vector construction) in E. coli SQ380 (E. coli SH424), which was then transformed with pSH6-KF, resulting in the detection strain E. coli SH431. E. coli SH431 was used to conduct ribosome inhibition assays identical to those performed with E. coli SH399. Dose-dependent fluorescence responses by E. coli SH431 were observed when treated with four of these compounds as determined by plate reader fluorescence assays (see section 1.6 for experimental details), including two to which E. coli SH399 was not resistant and therefore could not produce a response. (FIG. 4B and FIG. 20).

E. coli SH430 = assay: Cell viability (OD600) assay of E. coli SH430 (pRRSH2, wild-type 16S rRNA)
Description: (§4) E. coli SQ380 was transformed with pRRSH2-A1408G; and prrnC-sacB was removed by sucrose counterselection, resulting in E. coli SH386. As a control, E. coli SQ380 was also transformed with pRRSH2; and prrnC-sacB was removed by sucrose counterselection, resulting in E. coli SH430.

E. coli SH386 = assay: Cell viability (OD600) assay of E. coli SH386 (pRRSH2-A1408G)
Description: as §4

E. coli SH431 = assay: Cell density (OD600) growth assay of E. coli SH431
Experimental: as §2
as §3, with “E. coli SH431 was used to conduct ribosome inhibition assays identical to those performed with E. coli SH399.” left out, “(FIG. 4B and FIG. 20).” left out

E. coli SH399 = assay: Cell density (OD600) growth assay of E. coli SH399; conditions: E. coli SH399, concentrations beyond peak fluorescence response
Experimental: as §1

E. coli SH434 = assay: Growth inhibition assay of aminoglycoside-sensitive E. coli SH434 (pSH6-KF, pRRSH2)
Experimental: as §1

T1 sequence (P04483 whole entry): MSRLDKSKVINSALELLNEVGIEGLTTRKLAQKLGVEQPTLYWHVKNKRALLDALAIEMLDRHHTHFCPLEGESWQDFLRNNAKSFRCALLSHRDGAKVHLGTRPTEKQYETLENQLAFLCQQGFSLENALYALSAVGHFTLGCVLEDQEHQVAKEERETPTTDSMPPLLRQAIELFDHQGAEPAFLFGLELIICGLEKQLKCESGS

Molecule	detection of O-ribosome inhibition (fluorescence signal) (O-ribosome [2])	dose-dependent fluorescence response pattern (O-ribosome [2])	detection of O-ribosome inhibition (fluorescence signal) (O-ribosome [3])	resistance of SH431 conferred by the U1406A mutation (E. coli SH431)	fluorescence at drug concentrations beyond those that give the peak response (O-ribosome [2])	also measured
Cc1c2c(c(O)c3c(O)cccc13)C(=O)[C@]1(O)C(=O)C(C(N)=O)=C(O)[C@@H](N(C)C)[C@@H]1C2 [anhydrotetracycline]	–	–	–	–	–	fluorescence level relative to the gfp-uv/tetR-expressing strain (TetR): 106.6%±1.2%
NC[C@H]1O[C@H](O[C@H]2[C@H](O)[C@@H](O[C@H]3O[C@H](CO)[C@@H](O)[C@H](N)[C@H]3O)[C@H](N)C[C@@H]2N)[C@H](O)[C@@H](O)[C@@H]1O [kanamycin, kanamycin A]	able to detect O-ribosome inhibition	robust dose-dependent increase in fluorescence; also recorded: more gradual dose-dependent fluorescence increases	able to detect O-ribosome inhibition	–	–	increase in fluorescence (O-ribosome [1]): ~50%; maximum induction of fluorescence (O-ribosome [1]; strong background fluorescence): 1.6 fold; relative potency as ribosome inhibitor (rank among four compounds) (O-ribosome [3]; E. coli SH431): least potent; growth inhibition (E. coli SH430; E. coli SH430, 10 μM kanamycin, 24 hours): significant growth inhibition; concentrations at which the strain cannot survive (E. coli SH430; E. coli SH430, 24 hours): above 10 μM; concentration up to which the strain is resistant (highest concentration tested) (E. coli SH386; E. coli SH386, A1408G): up to 500 μM; growth inhibition (E. coli SH386; E. coli SH386, any kanamycin concentration tested (up to 500 μM), 24 hours): no growth inhibition
CN[C@@H]1[C@@H](O[C@H]2O[C@H](CO)[C@@H](N)[C@H](O)[C@H]2O)OC2C[C@@H](N)[C@@H](O[C@H]3[C@H](O)[C@@H](O)[C@H](N)C[C@@H]3N)OC2[C@@H]1O (stereo partly drawn) [apramycin]	able to detect O-ribosome inhibition	more gradual dose-dependent fluorescence increases	lack of signal	inability of the U1406A mutation to confer resistance	–	–
NC[C@@H]1O[C@H](O[C@H]2[C@@H](O)[C@H](O[C@@H]3[C@@H](O)[C@H](N)C[C@H](N)[C@H]3O[C@H]3O[C@H](CN)[C@@H](O)[C@H](O)[C@H]3N)O[C@@H]2CO)[C@H](N)[C@@H](O)[C@@H]1O [neomycin, neomycin B]	able to detect O-ribosome inhibition	robust fluorescence responses at low concentrations	lack of signal	inability of the U1406A mutation to confer resistance	fluorescence decreases significantly	–
CN[C@@H]1[C@@H](O)[C@@H](O[C@@H]2[C@@H](O)[C@H](O[C@H]3OC(CN)=CC[C@H]3N)[C@@H](N)C[C@H]2N)OC[C@]1(C)O [sisomicin]	–	–	–	–	–	relative ribosome inhibition activity (rank among ten compounds) (O-ribosome [2]): strongest ribosome inhibition activity
NC[C@@H]1O[C@H](O[C@H]2[C@@H](O)[C@H](O[C@@H]3[C@@H](O)[C@H](N)C[C@H](N)[C@H]3O[C@H]3O[C@H](CO)[C@@H](O)[C@H](O)[C@H]3N)O[C@@H]2CO)[C@H](N)[C@@H](O)[C@@H]1O [paromomycin]	able to detect O-ribosome inhibition	robust fluorescence responses at low concentrations	lack of signal	inability of the U1406A mutation to confer resistance	fluorescence decreases significantly	growth inhibition accompanying the decrease in fluorescence (E. coli SH399): accompanied by growth inhibition
gentamicin [gentamicins]	able to detect O-ribosome inhibition	robust fluorescence responses at low concentrations	able to detect O-ribosome inhibition	–	fluorescence decreases significantly	growth inhibition accompanying the decrease in fluorescence (E. coli SH399): accompanied by growth inhibition; response at higher concentrations (O-ribosome [3]; E. coli SH431): Dose-dependent decreases in response; relative potency as ribosome inhibitor (rank among four compounds) (O-ribosome [3]; E. coli SH431): most potent ribosome inhibitors
NC[C@H]1O[C@H](O[C@H]2[C@H](O)[C@@H](O)[C@H](N)C[C@@H]2N)[C@H](N)[C@@H](O)[C@@H]1O [neamine]	–	–	–	–	–	growth inhibition activity (E. coli SH434): very weak; relative ribosome inhibition activity (rank among ten compounds) (O-ribosome [2]; listed as Neamine): very weak
